Results on 12 compounds are retold here after US7019023B2, “Benzothiepine 1, 1-dioxide derivatives, a process for their preparation, pharmaceuticals comprising these compounds, and their use” (Aventis Pharma Deutschland GmbH, priority 1998, dated 2006).

The test system of one test is bile acid transport in the ileum and the fecal excretion of bile acids. The test can be described thus: ED200 excretion: fecal excretion of 14C-taurocholate in the rat after oral administration twice daily. Conditions: Rattus norvegicus, po, 24 h, twice daily for one day, male Wistar rats; dose which increases fecal excretion of 14C taurocholic acid to 200% of control; diastereomer mixture unless stated. Format: in vivo. On the procedure:
The biological testing of the compounds according to the invention was carried out by determination of the ED200 excretion. This testing investigates the action of the compounds according to the invention on the bile acid transport in the ileum and the fecal excretion of bile acids in the rat after oral administration twice daily. The diastereomer mixtures of the compounds were tested.
The following recipe was used for the formulation of an aqueous solution:
the substances were dissolved in adequate volumes of an aqueous solution comprising Solutol (=polyethylene glycol […] hydroxystearate; BASF, Ludwigshafen, Germany; Batch No. 1763), so that a final concentration of 5% of Solutol is present in the aqueous solution. The solutions/suspensions were administered orally in a dose of 5 ml/kg. 2) Experimental Conditions
Male Wistar rats (Kastengrund, Hoechst AG, weight range 250–350 g) were kept in groups of 6 animals each and received a standard feed mixture (Altromin, Lage, Germany) from 10 days before the start of treatment (day 1) with a reversed day/night rhythm (4.00–16.00 dark, 16.00–4.00 light). Three days before the start of the experiment (day 0), the animals were divided into groups of 4 animals each.
After intravenous or subcutaneous administration of 5 μCi of ^14C-taurocholate per rat (day 0), the vehicles or test substances were given at 7.00–8.00 and at 15.00–16.00 on the following day (day 1) (treatment for one day).
Stool samples for the analysis of C-taurocholate were taken every 24 hours directly after the administration of the morning dose. The feces were weighed, stored at −18° C. and later suspended in 100 ml of demineralized water and homogenized (Ultra Turrax, Janke & Kunkel, IKA-Werk). Aliquot parts (0.5 g) were weighed and combusted on combustion lids (Combusto Cones, Canberra Packard) in a combustion apparatus (Tri Carb® 307 combuster Canberra Packard GmbH, Frankfurt am Main, Germany). The resulting ^14CO2 was absorbed with Carbo-Sorb® (Canberra Packard). The following ^14C radioactivity measurements were determined after addition of the scintillator (Perma-Fluor complete scintillation cocktail No. 6013187, Packard) to the samples with the aid of liquid scintillation counting (LSC). The fecal excretion of ^14C-taurocholic acid was calculated as a cumulative and/or percentage residual radioactivity (see below).
The fecal excretion of ^14C-TCA was determined in combusted aliquot parts of the stool samples taken at 24-hour intervals, calculated as the “cumulative percentage” of the administered activity and expressed as a % of the residual activity (=remaining activity, i.e. administered activity minus the already excreted activity). For the calculation of the dose-response curves, the excretion of ^14C taurocholic acid was expressed as a percentage proportion of the corresponding values of the control group (treated with vehicle). The ED200, i.e. the dose which increases the fecal excretion of ^14C taurocholic acid to 200% of the control group, is calculated from a sigmoid or linear dose-response curve by interpolation. The calculated ED200 corresponds to a dose which doubles the fecal excretion of bile acids.
For the compound `CCCC[C@]1(CC)CS(=O)(=O)c2ccc(N(C)C)cc2[C@@H](c2cccc(N)c2)[C@H]1O` [Comparison Example 1, reference compound], the ED (200% of control) is 0.8 mg/kg/day.

On to `CCCC[C@]1(CC)CS(=O)(=O)c2ccc(N(C)C)cc2[C@@H](c2cccc(NC(=O)CCCCBr)c2)[C@H]1O` [Comparison Example 2, reference compound], for which the ED (200% of control) worked out at 1 mg/kg/day.

Regarding `CCCC[C@]1(CC)CS(=O)(=O)c2ccc(N(C)C)cc2[C@@H](c2cccc(NC(=O)CCCC[N+](CC)(CC)CC)c2)[C@H]1O` [Comparison Example 3, reference compound], the ED (200% of control) came out at 0.9 mg/kg/day.

For `CCCC[C@]1(CC)CS(=O)(=O)c2ccc(N(C)C)cc2[C@@H](c2cccc(NC(=O)[C@H](O)[C@@H](O)[C@H](O)[C@H](O)CO)c2)[C@H]1O` [Example 1], the ED (200% of control) stood at 0.009 mg/kg/day.

`CCCC[C@]1(CC)CS(=O)(=O)c2ccc(N(C)C)cc2[C@@H](c2cccc(NC(=O)[C@H](OC(C)=O)[C@@H](OC(C)=O)[C@H](OC(C)=O)[C@@H](COC(C)=O)OC(C)=O)c2)[C@H]1O` [Example 2]: the ED (200% of control) came to 0.008 mg/kg/day.

Turning to `CCCCC1(CCCC)CS(=O)(=O)c2ccc(N(C)C)cc2[C@@H](c2cccc(NC(=O)[C@H](OC(C)=O)[C@@H](OC(C)=O)[C@H](OC(C)=O)[C@@H](COC(C)=O)OC(C)=O)c2)[C@H]1O` [Example 6], the ED (200% of control) was determined as 0.04 mg/kg/day.

As to `CCCCC1(CCCC)CS(=O)(=O)c2ccc(N(C)C)cc2[C@@H](c2cccc(NC(=O)[C@H](O)[C@@H](O)[C@H](O)[C@H](O)CO)c2)[C@H]1O` [Example 7], the ED (200% of control) was found to be 0.04 mg/kg/day.

For `CCCC[C@]1(CC)CS(=O)(=O)c2ccc(N(C)C)cc2[C@@H](c2cccc(NC(=O)CCCCNC(=O)[C@H](OC(C)=O)[C@@H](OC(C)=O)[C@H](OC(C)=O)[C@@H](COC(C)=O)OC(C)=O)c2)[C@H]1O` [Example 8], the ED (200% of control) is 0.007 mg/kg/day.

Turning to `CCCC[C@]1(CC)CS(=O)(=O)c2ccc(N(C)C)cc2[C@@H](c2cccc(NC(=O)CCCCNC(=O)[C@H](O)[C@@H](O)[C@H](O)[C@H](O)CO)c2)[C@H]1O` [Example 9], the ED (200% of control) stood at 0.007 mg/kg/day.

For `CCCC[C@]1(CC)CS(=O)(=O)c2ccc(N(C)C)cc2[C@@H](c2cccc(NC(=O)CCCCN(C[C@H](OC(C)=O)[C@@H](OC(C)=O)[C@H](OC(C)=O)[C@@H](COC(C)=O)OC(C)=O)C(C)=O)c2)[C@H]1O` [Example 10], the ED (200% of control) stood at 0.04 mg/kg/day.

The same test, now with this note: p.o., twice daily for one day, male Wistar rats; dose which increases fecal excretion of 14C taurocholic acid to 200% of control; diastereomer mixture unless stated.
Consider `CCCC[C@]1(CC)CS(=O)(=O)c2ccc(N(C)C)cc2[C@@H](c2cccc(NC(=O)CCCCNC[C@H](O)[C@@H](O)[C@H](O)[C@H](O)CO)c2)[C@H]1O` [3 (pure structure 11a)], for which the ED200 excretion is 0.008 mg/kg/day.

Take `CCCC[C@]1(CC)CS(=O)(=O)c2ccc(N(C)C)cc2[C@@H](c2cccc(NC(=O)CCCCNC[C@H](O)[C@@H](O)[C@H](O)[C@H](O)CO)c2)[C@H]1O` [Example 3]: the ED200 excretion was determined as 0.04 mg/kg/day.
